# pIC50: −log10 of the molar value.
# Target: T1, human PAD4 (Homo sapiens, UniProt Q9UM07)
# T1 construct: human PAD4 (NM_012387), A2-P663, was PCR amplified; His-SUMO (N, cleaved yes); made in house; host or cells: E. coli BL21(DE3)
# Assay: In vitro PAD4 BAEE biochemical assay
# Details: BAEE substrate 3 mM, 5 nM PAD4, 2 mM calcium chloride; geometric mean of multiple experiments
# In short: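 Ammonia produced by BAEE deimination (3 mM substrate, 2 h, 25 °C) was read as fluorescent isoindole after o-phthalaldehyde/DTT derivatization, ex 405 nm/em 535 nm. Human PAD4 at 5 nM final, 2 mM calcium, pH 7.6 MOPS; compound preincubated 30 min. IC50s, normalized to BB-Cl-Amidine and DMSO controls, were geometric-mean averaged.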
# T1 sequence (Q9UM07 2-663): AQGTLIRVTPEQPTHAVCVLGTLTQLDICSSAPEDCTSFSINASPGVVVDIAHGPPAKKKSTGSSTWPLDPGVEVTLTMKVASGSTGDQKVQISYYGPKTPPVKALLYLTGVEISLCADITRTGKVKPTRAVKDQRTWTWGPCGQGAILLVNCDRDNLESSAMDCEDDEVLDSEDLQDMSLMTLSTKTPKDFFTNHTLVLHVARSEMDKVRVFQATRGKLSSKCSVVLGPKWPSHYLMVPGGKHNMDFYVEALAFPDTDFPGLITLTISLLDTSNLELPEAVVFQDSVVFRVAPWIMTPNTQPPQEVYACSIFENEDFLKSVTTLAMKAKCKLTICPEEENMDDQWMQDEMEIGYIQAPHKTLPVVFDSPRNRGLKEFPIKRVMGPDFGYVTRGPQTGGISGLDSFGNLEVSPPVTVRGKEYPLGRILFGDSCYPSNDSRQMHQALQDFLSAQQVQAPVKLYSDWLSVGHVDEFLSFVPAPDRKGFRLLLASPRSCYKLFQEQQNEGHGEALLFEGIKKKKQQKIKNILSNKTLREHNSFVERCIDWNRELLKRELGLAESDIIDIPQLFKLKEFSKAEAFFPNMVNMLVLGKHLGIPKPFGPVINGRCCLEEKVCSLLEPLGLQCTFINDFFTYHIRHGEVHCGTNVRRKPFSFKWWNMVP
row,pIC50,Compound
1,7.19,"COc1cc(C(=O)N2CC[C@@H](OC)[C@@H](N)C2)cc2nc(-c3cc4ccc5nc4n3CCCCCC[C@@]3(CCCO3)C(=O)N[C@@H]5C)n(C)c12 [Example 687, (8~{R},11~{R})-17-[5-[(3~{S),4~{R})-3-amino-4-methoxy-piperidine-1-carbonyl]-7-methoxy-1-methyl-benzimidazol-2-yl]-11-methyl-spiro[1,10,19-triazatricyclo[10.5.2.0^ {15,18}]nonadeca-12(19),13,15(18),16-tetraene-8,2′-tetrahydrofuran]-9-one]"
2,7.16,"COc1cc(C(=O)N2CCC[C@@H](N)C2)cc2nc(-c3cc4ccc5nc4n3CCCCCCC3(CCC3)C(=O)N[C@@H]5C)n(C)c12 [Example 263, (11~{R})-17-[5-[(3~{R})-3-aminopiperidine-1-carbonyl]-7-methoxy-1-methyl-benzimidazol-2-yl]-11-methyl-spiro[1,10,19-triazatricyclo[10.5.2.0^{15,18}]nonadeca-12(19),13,15(18),16-tetraene-8,1′-cyclobutane]-9-one]"
3,5.75,"COc1cc(C(=O)N2CCC[C@@H](N)C2)cc2nc(-c3cc4ccc5nc4n3CCCCOc3ccccc3C(=O)N[C@@H]5C)n(C)c12 [Example 30, (2~{R})-17-[5-[(3~{R})-3-aminopiperidine-1-carbonyl]-7-methoxy-1-methyl-benzimidazol-2-yl]-2-methyl-11-oxa-3,16,22-triazatetracyclo[14.5.2.0^{5,10).0^{19,23}] tricosa-1(22),5,7,9,17,19(23),20-heptaen-4-one]"
4,7.15,"COc1cc(C(=O)N2CCC[C@@H](N)C2)cc2nc(-c3cc4ccc5nc4n3CCCCCC[C@@H](C)C(=O)N[C@@H]5C)n(C)c12 [Example 110, (8~{R},11~{R})-17-[5-[(3~{R})-3-aminopiperidine-1-carbonyl]-7-methoxy-1-methyl-benzimidazol-2-yl]-8,11-dimethyl-1,10,19-triazatricyclo[10.5.2.0^{15,18}]nonadeca-12(19),13,15(18),16-tetraen-9-one]"
5,7.89,"COc1cc(C(=O)N2CCC[C@@H](N)C2)cc2nc(-c3cc4ccc5nc4n3CCCCCCCC(=O)N[C@@H]5C)n(C)c12 [Example 282, (11~{R})-17-[5-[(3~{R})-3-aminopiperidine-1-carbonyl]-7-methoxy-1-methyl-benzimidazol-2-yl]-11-methyl-1,10,19-triazatricyclo[10.5.2.0^{15,18}]nonadeca-12(19),13,15(18),16-tetraen-9-one]"
6,7.42,"COc1cc(C(=O)N2CC[C@@H](OC)[C@@H](N)C2)cc2nc(-c3cc4ccc5nc4n3CCCC(F)(F)C[C@H]3C[C@H]3C(=O)N[C@@H]5C)n(C)c12 [Example 859, (2~{R},5~{R},7~{R})-14-[5-[(3~{S},4~{R})-3-amino-4-methoxy-piperidine-1-carbonyl]-7-methoxy-1-methyl-benzimidazol-2-yl]-9,9-difluoro-2-methyl-3,13,19-triazatetracyclo [11.5.2.0^{5,7}.0^{16,20}] icosa-1(19),14,16(20),17-tetraen-4-one]"

# Second part, the compound before the results:
row,Compound,pIC50
1,"COc1cc(C(=O)N[C@H]2CNCC[C@@H]2F)cc2nc(-c3cc4ccc5nc4n3CCCCC[C@@]3(C)C[C@@H]3C(=O)N[C@@H]5C)n(C)c12 [Example 617, 2-[(2~{R},5~{S},7~{S})-2,7-dimethyl-4-oxo-3,13,19-triazatetracyclo[11.5.2.0^ {5,7}.0^{16,20}]icosa-1(19),14,16(20),17-tetraen-14-yl]-~{N}-[(3~ {S},4~{S})-4-fluoro-3-piperidyl]-7-methoxy-1-methyl-benzimidazole-5-carboxamide]",5.95
2,"C[C@H]1NC(=O)[C@H]2C[C@@H]2CC(F)(F)CCCn2c(-c3nc4cc(C(=O)N5C[C@H](N)[C@@H]6CC[C@H]5C6)cc(F)c4n3C3CC3)cc3ccc1nc32 [Example 880, (2~{R},5~{S},7~{R})-14-[5-[(1~{S},4~{R},5~{R})-4-amino-2-azabicyclo[3.2.1]octane-2-carbonyl]-1-cyclopropyl-7-fluoro-benzimidazol-2-yl]-9,9-difluoro-2-methyl-3,13,19-triazatetracyclo [11.5.2.0^{5,7}.0^{16,20}] icosa-1(19),14,16(20), 17-tetraen-4-one]",7.41
3,"C[C@@H]1[C@H](N)CCCN1C(=O)c1cc(F)c2c(c1)nc(-c1cc3ccc4nc3n1CCCCCc1nc(C(F)(F)F)ccc1C(=O)N[C@@H]4C)n2C1CC1 [Example 838, (2~{R})-17-[5-[(2~{R}, 3~{R})-3-amino-2-methyl-piperidine-1-carbonyl]-1-cyclopropyl-7-fluoro-benzimidazol-2-yl]-2-methyl-8-(trifluoromethyl)-3,9,16,22-tetrazatetracyclo[14.5.2.0^ {5,10).0^{19,23}] tricosa-1(22),5(10), 6,8,17,19(23),20-heptaen-4-one]",7.31
4,"C[C@H]1NC(=O)C(C)(C)CCCCCCn2c(-c3nc4cc(C(=O)N[C@H]5CNCC[C@@H]5F)ccc4n3C)cc3ccc1nc32 [Example 500, ~{N}-[(3~{S},4~ {S})-4-fluoro-3-piperidyl]-1-methyl-2-[(11~{R})-8,8,11-trimethyl-9-oxo-1,10,19-triazatricyclo[10.5.2.0^ {15,18}]nonadeca-12(19), 13,15(18),16-tetraen-17-yl]benzimidazole-5-carboxamide]",7.05
5,"CCC1NC(=O)C(C)(C)CCCCCCn2c(-c3nc4cc(C(=O)N5CC[C@@H](OC)[C@@H](N)C5)cc(OC)c4n3C)cc3ccc1nc32 (stereo partly drawn) [Example 779, 17-[5-[(3~{S),4~{R})-3-amino-4-methoxy-piperidine-1-carbonyl]-7-methoxy-1-methyl-benzimidazol-2-yl]-11-ethyl-8,8-dimethyl-1,10,19-triazatricyclo[10.5.2.0^ {15,18}]nonadeca-12,14,16,18-tetraen-9-one]",6.47
6,"COc1cc(C(=O)N2C[C@H](N)[C@H](O)[C@@H](F)C2)cc2nc(-c3cc4ccc5nc4n3CC(F)(F)CCC[C@@H]3C[C@H]3C(=O)N[C@@H]5C)n(C)c12 [Example 678, (2~{R},5~{R},7~{R})-14-[5-[(3~{S},4~{S},5~ {S})-3-amino-5-fluoro-4-hydroxy-piperidine-1-carbonyl]-7-methoxy-1-methyl-benzimidazol-2-yl]-11,11-difluoro-2-methyl-3,13,19-triazatetracyclo[11.5.2.0^ {5,7}.0^{16,20}]icosa-1(19), 14,16(20),17-tetraen-4-one]",7.82
7,"CO[C@@H]1CCCCC(F)(F)Cn2c(-c3nc4cc(C(=O)N[C@H]5CNCC[C@@H]5F)c(F)cc4n3C)cc3ccc(nc32)[C@@H](C)NC1=O [Example 623, 2-[(8~{R},11~{R})-3,3-difluoro-8-methoxy-11-methyl-9-oxo-1,10,19-triazatricyclo[10.5.2.0^ {15,18}]nonadeca-12(19),13,15(18),16-tetraen-17-yl]-6-fluoro-~{N}-[(3~{S}, 4~{S})-4-fluoro-3-piperidyl]-1-methyl-benzimidazole-5-carboxamide]",7.33
8,"C[C@H]1NC(=O)c2cc3ccccc3nc2CCCCCn2c(-c3nc4cc(C(=O)N5C[C@H](N)[C@@H]6CC[C@H]5C6)cc(F)c4n3C3CC3)cc3ccc1nc32 [Example 476, (2~{R})-21-[5-[(1~{S),4~{R},5~{R})-4-amino-2-azabicyclo[3.2.1]octane-2-carbonyl]-1-cyclopropyl-7-fluoro-benzimidazol-2-yl]-2-methyl-3,13,20,26-tetrazapentacyclo[18.5.2.0^{5,14).0^ {7,12}.0^{23,27}]heptacosa-1(26),5(14),6,8,10,12,21,23(27),24-nonaen-4-one]",7.42
9,"COc1cc(C(=O)N2[C@H]3CC[C@@H]2[C@H](N)C3)cc2nc(-c3cc4ccc5nc4n3C[C@@H]3C[C@@H]3COCCC(=O)N[C@@H]5C)c(C)n12 (single isomer, unassigned) [Example 328, (3˜{R},5˜{S},12˜{R})-18-[7-[(1˜{R},2˜{R},4˜{S})-2-amino-7-azabicyclo[2.2.1]heptane-7-carbonyl]-5-methoxy-3-methyl-imidazo[1,2-a]pyridin-2-yl]-12-methyl-7-oxa-1,11,20-triazatetracyclo[11.5.2.0^{3,5}.0^{16,19}]icosa-13(20),14,16(19),17-tetraen-10-one]",7.60
10,"C[C@H]1NC(=O)[C@H]2C[C@@H]2CCCCn2c(-c3nc4cc(C(=O)N[C@H]5CNCC[C@@H]5F)c(F)cc4n3C)cc3ccc1nc32 [Example 499, 6-fluoro-~{N}-[(3~ {S},4~{S})-4-fluoro-3-piperidyl]-1-methyl-2-[(2~{R},7~{S})-2-methyl-4-oxo-3,12,18-triazatetracyclo [10.5.2.0^{5,7}.0^{15,19}]nonadeca-1(18), 13,15(19),16-tetraen-13-yl]benzimidazole-5-carboxamide]",6.79
11,"COc1cc(C(=O)N2[C@H]3CC[C@@H]2[C@H](N)C3)cc2nc(-c3cc4ccc5nc4n3CCCCCC[C@@H]3CCN(C3=O)[C@@H]5C)n(C)c12 [Example 138, (2˜{R},6˜{R})-14-[5-[(1˜{R},2˜{R},4˜{S})-2-amino-7-azabicyclo[2.2.1]heptane-7-carbonyl]-7-methoxy-1-methyl-benzimidazol-2-yl]-2-methyl-3,13,19-triazatetracyclo[11.5.2.1^{3,6}.0^{16,20}]henicosa-1(19),14,16(20),17-tetraen-21-one]",7.74
12,"COc1cc(C(=O)N[C@@H]2CCCCNC2)cc2nc(-c3cc4ccc5nc4n3CCCCCCC3(CC3)C(=O)N[C@@H]5C)n(C)c12 [Example 77, ~{N}-[(3~{R})-azepan-3-yl]-7-methoxy-1-methyl-2-[(11~{R})-11-methyl-9-oxo-spiro[1,10,19-triazatricyclo[10.5.2.0^{15,18}]nonadeca-12(19),13,15(18),16-tetraene-8,1′-cyclopropane]-17-yl]benzimidazole-5-carboxamide]",6.44
